According to US6506766B1 (Abbott Laboratories, priority 1998, dated 2003):
Where two headings read alike, the source gives them in different places.

Key:
[1] = biological target: T1, human glucocorticoid receptor-α [GRX] isoform (Homo sapiens, UniProt P04150); test: Radioligand binding with human glucocorticoid receptor cytosol ([3H]-dexamethasone competition); conditions: read-out: Ki (nM) GR
T1 construct: host or cells: insect SF21 cells (baculovirus)
T1 sequence (P04150 1-777): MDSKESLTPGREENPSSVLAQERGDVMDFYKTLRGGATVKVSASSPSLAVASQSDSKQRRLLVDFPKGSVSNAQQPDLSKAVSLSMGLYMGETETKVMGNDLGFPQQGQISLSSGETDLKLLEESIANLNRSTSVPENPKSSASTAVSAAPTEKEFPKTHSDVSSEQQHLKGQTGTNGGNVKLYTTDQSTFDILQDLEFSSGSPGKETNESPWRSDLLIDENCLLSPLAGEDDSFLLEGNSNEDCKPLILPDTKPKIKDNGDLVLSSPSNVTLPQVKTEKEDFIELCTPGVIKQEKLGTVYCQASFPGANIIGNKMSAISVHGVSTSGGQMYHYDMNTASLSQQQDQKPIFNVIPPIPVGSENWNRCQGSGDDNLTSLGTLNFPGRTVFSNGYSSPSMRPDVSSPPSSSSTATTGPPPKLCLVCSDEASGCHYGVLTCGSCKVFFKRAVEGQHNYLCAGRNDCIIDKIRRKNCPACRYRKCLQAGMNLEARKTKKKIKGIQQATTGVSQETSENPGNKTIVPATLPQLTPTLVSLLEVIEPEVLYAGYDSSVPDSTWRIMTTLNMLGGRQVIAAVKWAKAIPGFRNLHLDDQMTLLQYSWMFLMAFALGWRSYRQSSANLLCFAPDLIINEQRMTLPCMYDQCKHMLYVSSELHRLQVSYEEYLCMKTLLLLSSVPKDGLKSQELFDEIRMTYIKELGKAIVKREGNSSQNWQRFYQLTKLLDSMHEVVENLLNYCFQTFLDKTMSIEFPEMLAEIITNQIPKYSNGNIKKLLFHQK

[2] = biological target: T2, human progesterone receptor-A [PRA] isoform (Homo sapiens, UniProt P06401); test: Radioligand binding with human progesterone receptor cytosol ([3H]-progesterone competition); conditions: read-out: Ki (nM) PR
T2 construct: host or cells: insect SF21 cells (baculovirus)
T2 sequence (P06401 1-769 isoform P06401-2): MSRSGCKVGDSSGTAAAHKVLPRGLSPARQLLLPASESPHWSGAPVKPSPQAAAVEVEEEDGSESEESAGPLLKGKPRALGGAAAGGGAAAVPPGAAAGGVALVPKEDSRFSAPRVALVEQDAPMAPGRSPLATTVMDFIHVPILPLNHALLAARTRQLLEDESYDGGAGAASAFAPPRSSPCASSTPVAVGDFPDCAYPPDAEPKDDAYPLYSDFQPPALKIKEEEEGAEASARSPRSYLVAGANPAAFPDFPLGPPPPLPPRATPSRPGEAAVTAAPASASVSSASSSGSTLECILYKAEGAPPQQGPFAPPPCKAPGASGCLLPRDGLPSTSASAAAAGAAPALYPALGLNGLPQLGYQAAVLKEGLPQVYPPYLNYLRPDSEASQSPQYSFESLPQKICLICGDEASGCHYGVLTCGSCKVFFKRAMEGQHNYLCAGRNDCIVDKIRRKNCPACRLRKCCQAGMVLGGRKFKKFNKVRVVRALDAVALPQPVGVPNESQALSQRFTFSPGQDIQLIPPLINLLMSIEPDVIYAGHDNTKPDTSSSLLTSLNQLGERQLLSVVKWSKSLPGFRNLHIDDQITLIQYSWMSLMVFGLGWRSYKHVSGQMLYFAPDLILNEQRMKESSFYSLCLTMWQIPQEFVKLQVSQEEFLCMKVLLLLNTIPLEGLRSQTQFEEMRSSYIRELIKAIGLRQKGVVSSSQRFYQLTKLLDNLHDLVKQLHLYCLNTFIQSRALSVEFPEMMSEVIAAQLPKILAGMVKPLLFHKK

[3] = GRX cytosol expressed in insect SF21 cells, [3H]-Dex ~0.9 nM, 4° C. overnight, Ki by Cheng-Prusoff, KL ~[…]
[4] = PRA cytosol expressed in insect SF21 cells, [3H]Prog ~0.8 nM, 4° C. overnight, Ki by Cheng-Prusoff, KL ~4.5 nM

Row | SMILES | Ki [1, 3] | Ki [2, 4] | Ki [1] | Ki [2]
1 | COc1cccc2c1-c1ccc3c(c1C(C/C=C/CO)O2)C(C)=CC(C)(C)N3 (centres unmarked) [Example 195, (E) 2,5-Dihydro-10-methoxy-5-(4-hydroxy-2-buten-1-yl)-2,2,4-trimethyl-1H-[1]benzopyrano[3,4-f]quinoline] | 25 nM | ≥ 10000 nM |  | 
2 | COc1cccc2c1-c1ccc3c(c1C(C/C=C/COC(=O)N(C)C)O2)C(C)=CC(C)(C)N3 (centres unmarked) [Example 196, (E) 2,5-Dihydro-10-methoxy-5-(4-(N,N-dimethylaminocarbonyloxy)-2-buten-1-yl)-2,2,4-trimethyl-1H-[1]benzopyrano[3,4-f]quinoline] | 1.1 nM | ≥ 10000 nM |  | 
3 | CNC(=O)OC/C=C/CC1Oc2cccc(OC)c2-c2ccc3c(c21)C(C)=CC(C)(C)N3 (centres unmarked) [Example 197, (E) 2,5-Dihydro-10-methoxy-5-(4-(N-methylaminocarbonyloxy)-2-buten-1-yl)-2,2,4-trimethyl-1H-[1]benzopyrano[3,4-f]quinoline] | 28 nM | ≥ 10000 nM |  | 
4 | C/C=C/CC1Oc2cccc(OC)c2-c2ccc3c(c21)C(C)=CC(C)(C)N3 (centres unmarked) [Example 198, (E) 2,5-Dihydro-10-methoxy-5-(2-butenyl)-2,2,4-trimethyl-1H-[1]benzopyrano[3,4-f]quinoline] | 0.65 nM | 2130 nM |  | 
5 | COc1cccc2c1-c1ccc3c(c1C(CCOC(=O)NCc1ccccc1)O2)C(C)=CC(C)(C)N3 (centres unmarked) [Example 200, 2,5-Dihydro-10-methoxy-5-(2-(N-benzylcarbonyloxy)ethyl)-2,2,4-trimethyl-1H-[1]benzopyrano[3,4-f]quinoline] | 45 nM | ≥ 10000 nM |  | 
6 | COc1cccc2c1-c1ccc3c(c1C(CCOC(=O)N1CCOCC1)O2)C(C)=CC(C)(C)N3 (centres unmarked) [Example 201, 2,5-Dihydro-10-methoxy-5-(2-(N-morpholinocarbonyloxy)ethyl)-2,2,4-trimethyl-1H-[1]benzopyrano[3,4-f]quinoline] | 114 nM | ≥ 10000 nM |  | 
7 | COCCNC(=O)OCCC1Oc2cccc(OC)c2-c2ccc3c(c21)C(C)=CC(C)(C)N3 (centres unmarked) [Example 202, 2,5-Dihydro-10-methoxy-5-(2-(N-(2-methoxyethyl)aminocarbonyloxy)ethyl)-2,2,4-trimethyl-1H-[1]benzopyrano[3,4-f]quinoline] | 134 nM | ≥ 10000 nM |  | 
8 | CNC(=O)OCCC1Oc2cccc(OC)c2-c2ccc3c(c21)C(C)=CC(C)(C)N3 (centres unmarked) [Example 203, 2,5-Dihydro-10-methoxy-5-(2-(N-methyaminocarbonyloxyoxy)ethyl)-2,2,4-trimethyl-1H-[1]benzopyrano[3,4-f]quinoline] | 85 nM | ≥ 10000 nM |  | 
9 | COc1cccc2c1-c1ccc3c(c1C(CCOC(=O)N(C)C)O2)C(C)=CC(C)(C)N3 (centres unmarked) [Example 204, 2,5-Dihydro-10-methoxy-5-(2-(N,N-dimethylaminocarbonyloxy)ethyl)-2,2,4-trimethyl-1H-[1]benzopyrano[3,4-f]quinoline] | 74 nM | ≥ 10000 nM |  | 
10 | COCOCCC1Oc2cccc(OC)c2-c2ccc3c(c21)C(C)=CC(C)(C)N3 (centres unmarked) [Example 205, 2,5-Dihydro-10-methoxy-5-(2-methoxymethoxyethyl)-2,2,4-trimethyl-1H-[1]benzopyrano[3,4-f]quinoline] | 11.4 nM | ≥ 10000 nM |  | 
11 | CCOC(=O)NCC1Oc2cccc(OC)c2-c2ccc3c(c21)C(C)=CC(C)(C)N3 (centres unmarked) [Example 207] | 22 nM | ≥ 10000 nM |  | 
12 | C=C=C(C)C1Oc2cccc(OC)c2-c2ccc3c(c21)C(C)=CC(C)(C)N3 (centres unmarked) [Example 210, 2,5-Dihydro-10-methoxy-5-(-methylpropa-1,2-dienyl)-2,2,4-trimethyl-1H-[1]benzopyrano[3,4-f]quinoline] |  |  | 21 nM | 710 nM
13 | COc1cccc2c1-c1ccc3c(c1C(c1cc(F)c(F)c(F)c1)O2)C(C)=CC(C)(C)N3 (centres unmarked) [Example 211] | 5.3 nM | ≥ 10000 nM |  | 
14 | COc1cccc2c1-c1ccc3c(c1C(c1ccccn1)O2)C(C)=CC(C)(C)N3 (centres unmarked) [Example 213, 2,5-Dihydro-10-methoxy-5-(2-pyridyl)-2,2,4-trimethyl-1H-[1]benzopyrano[3,4-f]quinoline] | 67 nM | ≥ 10000 nM |  | 
15 | COc1cccc2c1-c1ccc3c(c1C(c1cccnc1)O2)C(C)=CC(C)(C)N3 (centres unmarked) [Example 214, 2,5-Dihydro-10-methoxy-5-(3-pyridyl)-2,2,4-trimethyl-1H-[1]benzopyrano[3,4-f]quinoline] | 5.7 nM | ≥ 10000 nM |  | 
16 | COc1cccc2c1-c1ccc3c(c1C(c1ccncc1)O2)C(C)=CC(C)(C)N3 (centres unmarked) [Example 215, 2,5-Dihydro-10-methoxy-5-(4-pyridyl)-2,2,4-trimethyl-1H-[1]benzopyrano[3,4-f]quinoline] | 20 nM | ≥ 10000 nM |  | 
17 | C=CCC1Oc2ccc(O)c(Cl)c2-c2ccc3c(c21)C(C)=CC(C)(C)N3 (centres unmarked) [Example 216, 10-Chloro-9-hydroxy-5-(3-propenyl)-2,2,4-trimethyl-1H-2,5-dihydro-[1]benzopyrano[3,4-f]quinoline] |  | 7.6 nM | 0.58 nM | 
18 | CC1=CC(C)(C)Nc2ccc3c(c21)C(c1ccccc1)Oc1ccc(O)c(Cl)c1-3 (centres unmarked) [Example 217, 10-Chloro-9-hydroxy-5-phenyl-2,2,4-trimethyl-1H-2,5-dihydro-[1]benzopyrano[3,4-f]quinoline] | 1 nM | 65.1 nM |  | 
19 | CC1=CC(C)(C)Nc2ccc3c(c21)C(c1cccc(C(F)(F)F)c1)Oc1ccc(O)c(Cl)c1-3 (centres unmarked) [Example 218, 10-Chloro-9-hydroxy-5-(3-trifluoromethylphenyl)-2,2,4-trimethyl-1H-2,5-dihydro-[1]benzopyrano[3,4-f]quinoline] | 1.6 nM | 227 nM |  | 
20 | CC1=CC(C)(C)Nc2ccc3c(c21)C(c1cc(C)cc(C)c1)Oc1ccc(O)c(Cl)c1-3 (centres unmarked) [Example 219, 10-Chloro-9-hydroxy-5-(3,5-dimethylphenyl)-2,2,4-trimethyl-1H-2,5-dihydro-[1]benzopyrano[3,4-f]quinoline] | 2.4 nM | 178 nM |  | 
21 | CC1=CC(C)(C)Nc2ccc3c(c21)[C@H]([C@H]1C=CCC1)Oc1ccc(O)c(Cl)c1-3 [Example 222, (−)2,5(S)-Dihydro-9-hydroxy-10-chloro-2,2,4-trimethyl-5-(3R-cyclopentenyl)-1H-[1]benzopyrano[3,4-f]quinoline] | 0.47 nM | 9.9 nM |  | 
22 | CC1=CC(C)(C)Nc2ccc3c(c21)C(c1cc(Cl)cc(Cl)c1)Oc1ccc(O)c(Cl)c1-3 (centres unmarked) [Example 223, 10-Chloro-9-hydroxy-5-(3,5-dichlorophenyl)-2,2,4-trimethyl-1H-2,5-dihydro-[1]benzopyrano[3,4-f]quinoline] | 2.6 nM | 297 nM |  | 
23 | CC1=CC(C)(C)Nc2ccc3c(c21)[C@@H]([C@@H]1C=CCC1)Oc1ccc(O)c(Cl)c1-3 [Example 224] | 57 nM | 786 nM |  | 
24 | CC1=CC(C)(C)Nc2ccc3c(c21)[C@@H]([C@H]1C=CCC1)Oc1ccc(O)c(Cl)c1-3 [Example 225] | 155 nM | 5010 nM |  | 
25 | CC1=CC(C)(C)Nc2ccc3c(c21)C(c1ccc(F)c(F)c1)Oc1ccc(O)c(Cl)c1-3 (centres unmarked) [Example 226, 10-Chloro-9-hydroxy-5-(3,4-difluorophenyl)-2,2,4-trimethyl-1H-2,5-dihydro-[1]benzopyrano[3,4-f]quinoline] | 2.6 nM | 220 nM |  | 
